Data as given in patent US20140105948A1, “STABILITY OF PEROXIDE IN ORAL CARE COMPOSTIONS” (INTERCONTINENTAL GREAT BRANDS LLC, priority 2011, published 2014).
Where a name gives a salt, the structure may show the parent alone. Residues, ends and D or L forms follow the SMILES beside them.

Assays:
[1] = Stability of carbamide peroxide stored with sweeteners; assay type: physicochemical; conditions: for % Carbamide Peroxide recovered after 4 weeks of aging with sweetener at 25 C.: carbamide peroxide stored with sweetener, four weeks; for tendency of sweetener to react with the peroxide: result in words
Experimental: The present inventors have compared the action of certain sweeteners on the effect with carbamide peroxide, with surprising results. Carbamide peroxide was stored with three sweeteners, and stored for four weeks at 25° C. to determine stability. The three sweeteners included aspartame, acesulfame potassium and sucralose. The percentage of carbamide peroxide recovered after four weeks was measured.

[2] = Shelf life stability of encapsulated carbamide peroxide in chewing gum (Example 1); assay type: physicochemical; conditions: without encapsulation, after two weeks of storage
Experimental: The stability of various encapsulants for carbamide peroxide in chewing gum was measured. As explained above, peroxides in general are known to be problematic in the shelf life of chewing gums, as they have a tendency to break down gum base, rendering it ineffective and useless. Chewing gums including various encapsulated carbamide peroxides were prepared and were stored for eight weeks at room temperature and at 37° C. Solid carbamide peroxide was encapsulated in the following encapsulating materials: (1) ethyl cellulose (25% encapsulant weight); (2) polyvinyl acetate B30 (30% encapsulant weight); (3) gum arabic (30% encapsulant weight); (4) mannitol (30% encapsulant weight); and (5) shellac (30% encapsulant weight). These encapsulated particles were used in formulating pieces of chewing gum and were measured for shelf life stability. In addition, a control chewing gum was prepared, which included non-encapsulated (“free”) carbamide peroxide within the gum base. The amount of carbamide peroxide obtained after the study was measured. […] At room temperature after eight weeks, chewing gums including this encapsulated carbamide peroxide had approximately 95% of the carbamide peroxide remaining. Even after eight weeks at elevated temperatures, these products had approximately 80% of the carbamide peroxide remaining.

% Carbamide Peroxide recovered after 4 weeks of aging with sweetener at 25 C. [1] | % Carbamide Peroxide recovered after 4 weeks of aging with sweetener at 25 C. ([1]; listed as aspartame) | tendency of sweetener to react with the peroxide [1] | Compound | carbamide peroxide decomposed in chewing gum product [2]
 |  | do not react with the peroxide | OC[C@@H](O)[C@@H](O[C@H]1O[C@H](CO)[C@@H](O)[C@H](O)[C@H]1O)[C@H](O)[C@@H](O)CO [maltitol] | 
 |  | do not react with the peroxide | isomalt | 

Second part, the compound before the results:

Compound | % Carbamide Peroxide recovered after 4 weeks of aging with sweetener at 25 C. [1] | % Carbamide Peroxide recovered after 4 weeks of aging with sweetener at 25 C. ([1]; listed as aspartame) | tendency of sweetener to react with the peroxide [1] | carbamide peroxide decomposed in chewing gum product [2]
CC1=CC(=O)NS(=O)(=O)O1 [Ace-K, potassium salt of 3,4-dihydro-6-methyl-1,2,3-oxathiazine-4-one-2,2-dioxide] | 92% |  |  | 
COC(=O)[C@H](Cc1ccccc1)NC(=O)[C@@H](N)CC(=O)O [Aspartame, L-aspartyl-L-phenylalanine methyl ester] (H-Asp-Phe-OMe) | 78% | significant reduction | have a tendency to react with the peroxide | 
OC[C@H]1O[C@H](O[C@]2(CCl)O[C@H](CCl)[C@@H](O)[C@@H]2O)[C@H](O)[C@@H](O)[C@H]1Cl [Sucralose] | 100% |  | do not react with the peroxide | 
NC(N)=O.OO [carbamide peroxide] |  |  |  | nearly all of the carbamide peroxide is decomposed
OCC(O)CO [glycerin] |  |  | have a tendency to react with the peroxide | 
